Test results from patent US11617723B2, “Composition for hepatic arterial chemoembolization using human serum albumin nanoparticles carrying anticancer agent, and method for producing same” (SOGANG UNIVERSITY RESEARCH FOUNDATION, priority 2016, dated 2023).

Experiment: In vitro drug release behavior (dialysis membrane in phosphate buffer saline, 37° C.)
Type: physicochemical
Settings: 2000 Da dialysis membrane, PBS, 5 mg Adriamycin, FIG. 6
Procedure: In addition, the human serum albumin nanoparticles and lipiodol, which is an embolic material, are mixed in various ratios using the same method as that used in hepatic arterial chemoembolization to be changed into an emulsion form, and the released Adriamycin is quantitatively analyzed to measure drug release behaviors.
To analyze Adriamycin released from the Adriamycin-bound human serum albumin nanoparticles, 1 mL (Adriamycin content: 5 mg) of each of the prepared samples is injected into a 2000 Da dialysis membrane and completely sealed. The resulting structure is added to a tube containing 10 mL of phosphate buffer saline and shaken at 37° C., and the dialysis membrane is transferred to a tube containing 10 mL of phosphate buffer saline at a predetermined time point to obtain each sample every time point. Groups of prepared samples are as follows:
Group 1.—free Adriamycin in phosphate buffer saline (free DOX (PBS)) or contrast media (free DOX(Pamiray)) • free Adriamycin & lipiodol with volume ratio of 1:4 (free DOX (1:4)) • human serum albumin nanoparticles carrying Adriamycin in phosphate buffered saline (DOX-HSA-NPs (PBS)) or a contrast medium (DOX-HSA-NPs (Pamiray)) • human serum albumin nanoparticles carrying Adriamycin & lipiodol in a volume ratio of 1:4 (DOX-HSA-NPs (1:4)) […]

time of most release of the drug: ≤ 3 h
Compound: COc1cccc2c1C(=O)c1c(O)c3c(c(O)c1C2=O)C[C@@](O)(C(=O)CO)C[C@@H]3O[C@H]1C[C@H](N)[C@H](O)[C@H](C)O1 [free DOX, Adriamycin]
